Source: patent publication US20250368666A1, “INDAZOLE COMPOUNDS” (TYRA BIOSCIENCES, INC., priority 2022, published 2025)

Legend:
[1] = molecular target: T1, FGFR1 (Homo sapiens, UniProt P11362); experiment: Kinase binding assay (kinase-tagged T7 phage, affinity beads, qPCR), Kd; conditions: read-out: FGFR1 (Kd nM)
T1 construct: made in house; host or cells: E. coli (BL21-derived), T7 phage
In short: (§1)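 Competition binding; kinase-tagged T7 phage lysate vs immobilised biotinylated ligand on streptavidin beads, 0.9% DMSO final. 11-pt 3-fold dilutions, 3 DMSO controls. qPCR of eluted kinase; Kd by Hill fit, slope −1.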

[2] = molecular target: T2, FGFR3 (Homo sapiens, UniProt P22607); experiment: as above; conditions: read-out: FGFR3 (Kd nM)
T2 construct: made in house; host or cells: E. coli (BL21-derived), T7 phage
In short: as §1

[3] = tested on: KATO-III cell line (FGFR2 amplification); experiment: Cancer cell line cell viability assay (Cell Titer-Glo), 72 hr; format: cell-based; conditions: Homo sapiens, KATO III
Description: (§2) Experimental Purpose: To detect the change of intracellular ATP by Cell Titer-Glo® and to evaluate the inhibitory effect of the compounds on cancer cell lines by determining the in vitro IC50 value of the compounds.
(§3) Cell Titer-Glo® 2.0 Luminescent cell viability assay reagent was purchased from Promega (Madison, WI). KG-1, KATO-III, and MDA-MB-453 cell lines were purchased from American Type Culture Collection (Manassas, VA). RT112/84 cell line was purchased from Millipore-Sigma (St. Louis, MO). HuH7 cells were purchased from Seikisui Xenotech (Kansas City, KS). RT112/84 and MDA-MB-453 cells were cultured in RPMI1640 media supplemented with 10% fetal bovine serum. KG-1 and KATO-III cell lines were cultured in IMDM media supplemented with 20% FBS. HuH7 cells were cultured in IMDM media supplemented with 10% FBS. Cultures were maintained at 37° C. in a humidified atmosphere of 5% CO2 and 95% air.
(§4) Cell Viability Assay Procedure: Cells were plated in 96-well clear bottom/white plates (Corning #3903) at a range of densities depending on the optimal assay window (5,000-20,000 cells/well in […] of media), incubated overnight. The next day, test compound DMSO stock solutions were made at 10 mM and […] final concentration. Compounds were then added to cells in a 9-dose, 4-fold dilution series starting at 3 μM with an HP 300e Digital Dispenser (each dose was applied in triplicate). DMSO was backfilled to each well up to 301 nL total volume of test compound+DMSO, and a total of 301 nL DMSO was added to a control/no test compound well in triplicate. The cells in cell culture plates were incubated with the compounds at 37° C. and 5% CO2 for 72 hours-120 hours depending on the cell line. Then 50 μl of Cell Titer Glo 2.0 reagent was added to each well of the cell culture plates. The contents were covered from light and mixed on an orbital shaker at room temperature for minimum of 10 min. Luminescence was recorded by a Clariostar Plus Microplate Reader (BMG Labtech, Cary, NC). Cells were assessed as a percentage of DMSO only treated control cells. Curves were plotted and IC50 values were calculated using the GraphPad Prism 9 program based on a sigmoidal dose-response equation (log (inhibitor) vs. response—Variable slope, 4-parameter).

[4] = tested on: KG-1 cell line (FGFR 1-fusion); experiment: as above; format: cell-based; conditions: Homo sapiens, KG-1, KG-1 cell line (FGFR1-fusion)
Description: as §2, §3, §4

[5] = tested on: RT112/84 cell line (FGFR3-fusion); experiment: as above; format: cell-based; conditions: Homo sapiens, RT112/84, RT112/84 cell line (FGFR3-fusion)
Description: as §2, §3, §4

[6] = molecular target: T3, FGFR2 (Homo sapiens, UniProt P21802); experiment: Kinase binding assay (kinase-tagged T7 phage, affinity beads, qPCR), Kd; conditions: read-out: FGFR2 (Kd nM)
T3 construct: made in house; host or cells: E. coli (BL21-derived), T7 phage
In short: as §1

[7] = molecular target: T4, FGFR3 (V555M) (Homo sapiens, UniProt P22607, V555M); experiment: as above; conditions: V555M mutant; read-out: FGFR3 (V555M) (Kd nM)
T4 construct: made in house; host or cells: E. coli (BL21-derived), T7 phage
In short: as §1

[8] = molecular target: T5, FGFR4 (Homo sapiens, UniProt P22455); experiment: as above; conditions: read-out: FGFR4 (Kd nM)
T5 construct: made in house; host or cells: E. coli (BL21-derived), T7 phage
In short: as §1

T4 sequence (P22607 23-806 V555M): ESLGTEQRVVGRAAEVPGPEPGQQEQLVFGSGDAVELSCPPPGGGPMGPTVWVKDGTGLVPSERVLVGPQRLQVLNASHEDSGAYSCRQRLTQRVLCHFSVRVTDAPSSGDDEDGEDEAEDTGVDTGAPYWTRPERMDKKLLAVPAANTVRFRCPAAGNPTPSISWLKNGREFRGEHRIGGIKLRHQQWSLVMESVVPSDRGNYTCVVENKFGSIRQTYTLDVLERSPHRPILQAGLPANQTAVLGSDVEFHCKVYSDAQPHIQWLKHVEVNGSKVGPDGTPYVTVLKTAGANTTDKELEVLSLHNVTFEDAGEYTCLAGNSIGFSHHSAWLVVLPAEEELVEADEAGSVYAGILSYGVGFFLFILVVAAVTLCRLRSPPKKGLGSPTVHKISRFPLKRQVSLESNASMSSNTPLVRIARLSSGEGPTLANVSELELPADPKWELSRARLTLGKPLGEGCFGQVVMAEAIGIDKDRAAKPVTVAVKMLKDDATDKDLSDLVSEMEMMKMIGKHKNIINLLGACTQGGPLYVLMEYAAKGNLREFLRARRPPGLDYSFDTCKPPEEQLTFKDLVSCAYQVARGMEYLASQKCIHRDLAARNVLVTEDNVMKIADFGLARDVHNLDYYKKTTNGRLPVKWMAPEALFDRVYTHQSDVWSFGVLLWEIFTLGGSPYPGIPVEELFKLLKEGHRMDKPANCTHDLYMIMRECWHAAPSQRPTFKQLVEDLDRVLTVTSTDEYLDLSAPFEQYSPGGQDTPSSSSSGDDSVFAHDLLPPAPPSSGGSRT
T5 sequence (P22455 22-802): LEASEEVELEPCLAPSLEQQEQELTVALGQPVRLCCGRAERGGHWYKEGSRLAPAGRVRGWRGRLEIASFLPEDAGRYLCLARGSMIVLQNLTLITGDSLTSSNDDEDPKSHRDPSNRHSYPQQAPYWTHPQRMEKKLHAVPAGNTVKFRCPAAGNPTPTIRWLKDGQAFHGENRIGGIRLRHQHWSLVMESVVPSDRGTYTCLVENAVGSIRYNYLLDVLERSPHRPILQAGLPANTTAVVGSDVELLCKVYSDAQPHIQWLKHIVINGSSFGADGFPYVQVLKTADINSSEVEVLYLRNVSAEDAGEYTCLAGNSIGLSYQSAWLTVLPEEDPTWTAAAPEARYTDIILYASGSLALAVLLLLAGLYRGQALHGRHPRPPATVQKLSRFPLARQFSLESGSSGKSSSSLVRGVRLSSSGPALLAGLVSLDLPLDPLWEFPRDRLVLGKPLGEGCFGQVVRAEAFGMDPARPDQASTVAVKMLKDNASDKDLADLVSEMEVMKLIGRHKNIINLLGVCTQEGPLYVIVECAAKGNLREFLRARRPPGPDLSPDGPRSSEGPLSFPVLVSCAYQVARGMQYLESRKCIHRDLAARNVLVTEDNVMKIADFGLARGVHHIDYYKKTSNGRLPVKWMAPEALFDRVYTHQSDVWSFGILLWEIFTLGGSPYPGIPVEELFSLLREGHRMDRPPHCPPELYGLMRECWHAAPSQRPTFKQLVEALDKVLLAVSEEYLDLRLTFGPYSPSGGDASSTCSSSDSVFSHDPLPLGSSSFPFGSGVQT
T3 sequence (P21802 22-821): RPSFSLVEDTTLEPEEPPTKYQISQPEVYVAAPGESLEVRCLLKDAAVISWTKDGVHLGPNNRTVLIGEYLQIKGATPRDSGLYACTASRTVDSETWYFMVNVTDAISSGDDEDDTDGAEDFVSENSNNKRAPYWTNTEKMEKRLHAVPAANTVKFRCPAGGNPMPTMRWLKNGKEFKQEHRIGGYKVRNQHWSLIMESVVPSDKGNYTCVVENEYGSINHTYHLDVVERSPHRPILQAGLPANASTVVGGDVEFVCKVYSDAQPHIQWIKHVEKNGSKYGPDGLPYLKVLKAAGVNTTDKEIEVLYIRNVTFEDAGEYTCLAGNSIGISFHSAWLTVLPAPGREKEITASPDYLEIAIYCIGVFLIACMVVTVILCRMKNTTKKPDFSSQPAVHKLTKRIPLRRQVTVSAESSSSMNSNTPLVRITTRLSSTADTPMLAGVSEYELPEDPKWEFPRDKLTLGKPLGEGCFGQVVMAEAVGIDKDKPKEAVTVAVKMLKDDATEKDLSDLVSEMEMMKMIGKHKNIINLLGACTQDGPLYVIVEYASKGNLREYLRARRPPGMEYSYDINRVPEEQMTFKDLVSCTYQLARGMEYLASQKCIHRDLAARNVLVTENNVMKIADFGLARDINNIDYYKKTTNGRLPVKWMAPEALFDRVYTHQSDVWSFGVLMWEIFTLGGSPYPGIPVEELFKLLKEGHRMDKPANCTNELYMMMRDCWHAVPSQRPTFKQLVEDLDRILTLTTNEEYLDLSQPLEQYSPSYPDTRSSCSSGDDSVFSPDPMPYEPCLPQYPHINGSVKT
T1 sequence (P11362 22-822): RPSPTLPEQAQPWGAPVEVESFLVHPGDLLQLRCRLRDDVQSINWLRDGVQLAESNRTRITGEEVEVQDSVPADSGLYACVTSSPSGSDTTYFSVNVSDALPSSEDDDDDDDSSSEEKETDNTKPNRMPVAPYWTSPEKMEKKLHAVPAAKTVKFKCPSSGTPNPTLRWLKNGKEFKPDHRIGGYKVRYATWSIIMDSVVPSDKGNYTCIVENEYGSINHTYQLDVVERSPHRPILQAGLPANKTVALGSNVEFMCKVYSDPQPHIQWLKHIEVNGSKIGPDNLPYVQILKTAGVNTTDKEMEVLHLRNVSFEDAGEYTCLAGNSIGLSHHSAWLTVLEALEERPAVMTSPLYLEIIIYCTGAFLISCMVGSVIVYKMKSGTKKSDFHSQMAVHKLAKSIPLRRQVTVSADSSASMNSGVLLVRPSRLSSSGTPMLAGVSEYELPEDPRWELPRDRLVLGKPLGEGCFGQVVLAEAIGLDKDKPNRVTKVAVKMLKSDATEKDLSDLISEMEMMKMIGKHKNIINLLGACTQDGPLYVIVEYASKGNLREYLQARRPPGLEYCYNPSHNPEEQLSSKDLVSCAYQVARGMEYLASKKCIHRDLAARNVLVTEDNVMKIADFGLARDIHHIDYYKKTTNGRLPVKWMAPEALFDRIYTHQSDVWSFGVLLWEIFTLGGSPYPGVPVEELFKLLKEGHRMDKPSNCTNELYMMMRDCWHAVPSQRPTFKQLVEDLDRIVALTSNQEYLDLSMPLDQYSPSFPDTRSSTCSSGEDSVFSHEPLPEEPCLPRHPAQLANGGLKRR
T2 sequence (P22607 23-806): as the sequence (P22607 23-806 V555M) above, with M533V counted along it

Structure (SMILES) | Kd [1] [nM] | Kd [2] [nM] | IC50 [3] [nM] | IC50 [4] [nM] | IC50 [5] [nM] | Kd [6] [nM] | Kd [7] [nM] | Kd [8] [nM]
C=CCNC1(CC#N)CN(c2ncc(-c3n[nH]c4ccc(O[C@H](C)c5c(Cl)cncc5Cl)cc34)cc2F)C1 [Example 248, 2-[3-(allylamino)-1-[5-[5-[(1R)-1-(3,5-dichloro-4-pyridyl)ethoxy]-1H-indazol-3-yl]-3-fluoro-2-pyridyl]azetidin-3-yl]acetonitrile] | 1 to 50 | 1 to 50 | 50 to 200 | 200 to 1000 | 0.1 to 50 |  |  | 
C[C@@H](Oc1ccc2[nH]nc(-c3ccc(N4CC(C)(NCC5CC5)C4)nn3)c2c1)c1c(Cl)cncc1Cl [Example 249, (R)-N-(cyclopropyl-methyl)-1-(6-(5-(1-(3,5-dichloropyridin-4-yl)ethoxy)-1H-indazol-3-yl)pyridazin-3-yl)-3-methylazetidin-3-amine] | 1 to 50 | 1 to 50 | 0.1 to 50 | 50 to 200 | 0.1 to 50 |  |  | 
C[C@@H](Oc1ccc2[nH]nc(-c3ccc(N4CC(N)(CCS(C)(=O)=O)C4)nn3)c2c1)c1c(Cl)cncc1Cl [Example 294, (R)-1-(6-(5-(1-(3,5-dichloropyridin-4-yl)ethoxy)-1H-indazol-3-yl)pyridazin-3-yl)-3-(2-(methylsulfonyl)ethyl)azetidin-3-amine] | 1 to 50 | 1 to 50 | 50 to 200 | > 1000 | 0.1 to 50 |  |  | 
C[C@@H](Oc1ccc2[nH]nc(-c3cnc(N4CC(N)(CCC#N)C4)c(F)c3)c2c1)c1c(Cl)cncc1Cl [Example 298, (R)-3-(3-amino-1-(5-(5-(1-(3,5-dichloropyridin-4-yl)ethoxy)-1H-indazol-3-yl)-3-fluoropyridin-2-yl)azetidin-3-yl)propanenitrile] | 1 to 50 | 1 to 50 | 0.1 to 50 | 50 to 200 | 0.1 to 50 |  |  | 
CNC(=O)C1(N)CN(c2ccc(-c3n[nH]c4ccc(O[C@H](C)c5c(Cl)cncc5Cl)cc34)nn2)C1 [Example 300, (R)-3-amino-1-(6-(5-(1-(3,5-dichloropyridin-4-yl)ethoxy)-1H-indazol-3-yl)pyridazin-3-yl)-N-methylazetidine-3-carboxamide] | 1 to 50 | 1 to 50 | 50 to 200 | > 1000 | 0.1 to 50 |  |  | 
C[C@@H](Oc1ccc2[nH]nc(-c3ccc(N4CC(C)(NCCF)C4)nn3)c2c1)c1c(Cl)cncc1Cl [Example 309, (R)-1-(6-(5-(1-(3,5-dichloropyridin-4-yl)ethoxy)-1H-indazol-3-yl)pyridazin-3-yl)-N-(2-fluoroethyl)-3-methylazetidin-3-amine] | 1 to 50 | 1 to 50 |  | 50 to 200 | 0.1 to 50 |  |  | 
C[C@@H](Oc1ccc2[nH]nc(-c3cnc(N4CC(C)(NCCC#N)C4)c(F)c3)c2c1)c1c(Cl)cncc1Cl [Example 310, (R)-3-((1-(5-(5-(1-(3,5-dichloropyridin-4-yl)ethoxy)-1H-indazol-3-yl)-3-fluoropyridin-2-yl)-3-methylazetidin-3-yl)amino)propane-nitrile] | 1 to 50 | 1 to 50 |  | 50 to 200 | 0.1 to 50 |  |  | 
C[C@@H](Oc1ccc2[nH]nc(-c3cnc(N4CC(C)(N5CCCC5)C4)c(C#N)c3)c2c1F)c1c(Cl)cncc1Cl [Example 322, (R)-5-(5-(1-(3,5-dichloropyridin-4-yl)ethoxy)-4-fluoro-1H-indazol-3-yl)-2-(3-methyl-3-(pyrrolidin-1-yl)azetidin-1-yl)nicotinonitrile] | > 1000 | > 1000 |  |  |  | > 1000 | 300 to 1000 | 50 to 300
C[C@@H](Oc1ccc2[nH]nc(-c3cnc(N4CC(C)(CP(C)(C)=O)C4)c(C#N)c3)c2c1F)c1c(Cl)cncc1Cl [Example 323, (R)-5-(5-(1-(3,5-dichloropyridin-4-yl)ethoxy)-4-fluoro-1H-indazol-3-yl)-2-(3-((dimethyl-phosphoryl)methyl)-3-methylazetidin-1-yl)nicotinonitrile] | > 1000 | > 1000 |  |  |  | > 1000 | 300 to 1000 | 1 to 50
CC(C)NCC1(C)CN(c2ncc(-c3n[nH]c4ccc(O[C@H](C)c5c(Cl)cncc5Cl)c(F)c34)cc2C#N)C1 [Example 326, (R)-5-(5-(1-(3,5-dichloropyridin-4-yl)ethoxy)-4-fluoro-1H-indazol-3-yl)-2-(3-((isopropylamino)methyl)-3-methylazetidin-1-yl)nicotinonitrile] | > 1000 | > 1000 |  |  |  | > 1000 | > 1000 | 1 to 50
C[C@@H](Oc1ccc2[nH]nc(-c3cnc(N4CC(C)(N5CCOCC5)C4)c(C#N)c3)c2c1F)c1c(Cl)cncc1Cl [Example 327, (R)-5-(5-(1-(3,5-dichloropyridin-4-yl)ethoxy)-4-fluoro-1H-indazol-3-yl)-2-(3-methyl-3-morpholinoazetidin-1-yl)nicotinonitrile] | > 1000 | > 1000 |  |  |  | > 1000 | > 1000 | 50 to 300

More lines, now with the values ahead:

Kd [1] [nM] | Kd [2] [nM] | IC50 [3] [nM] | IC50 [4] [nM] | IC50 [5] [nM] | Kd [6] [nM] | Kd [7] [nM] | Kd [8] [nM] | Structure (SMILES)
1 to 50 | 1 to 50 | 0.1 to 50 | 50 to 200 | 0.1 to 50 |  |  |  | C[C@@H](Oc1ccc2[nH]nc(-c3cnc(N4CC(N)(CC#N)C4)c(F)c3)c2c1)c1c(Cl)cncc1Cl [Example 241, (R)-2-(3-amino-1-(5-(5-(1-(3,5-dichloropyridin-4-yl)ethoxy)-1H-indazol-3-yl)-3-fluoropyridin-2-yl)azetidin-3-yl)acetonitrile]
1 to 50 | 1 to 50 | 50 to 200 |  | 0.1 to 50 |  |  |  | CCCC1(N)CN(c2ccc(-c3n[nH]c4ccc(O[C@H](C)c5c(Cl)cncc5Cl)cc34)nn2)C1 [Example 295, (R)-1-(6-(5-(1-(3,5-dichloropyridin-4-yl)ethoxy)-1H-indazol-3-yl)pyridazin-3-yl)-3-propylazetidin-3-amine]
1 to 50 | 1 to 50 | 0.1 to 50 | 0.1 to 50 | 0.1 to 50 |  |  |  | C[C@@H](Oc1ccc2[nH]nc(-c3ccc(N4CC(C)(NC(=O)CN(C)C)C4)nn3)c2c1)c1c(Cl)cncc1Cl [Example 297, (R)—N-(1-(6-(5-(1-(3,5-dichloropyridin-4-yl)ethoxy)-1H-indazol-3-yl)pyridazin-3-yl)-3-methylazetidin-3-yl)-2-(dimethylamino)acetamide]
1 to 50 | 1 to 50 | 50 to 200 | 50 to 200 | 0.1 to 50 |  |  |  | CCC1(N)CN(c2ccc(-c3n[nH]c4ccc(O[C@H](C)c5c(Cl)cncc5Cl)cc34)nn2)C1 [Example 299, (R)-1-(6-(5-(1-(3,5-Dichloropyridin-4-yl)ethoxy)-1H-indazol-3-yl)pyridazin-3-yl)-3-ethylazetidin-3-amine]
> 1000 | > 1000 |  |  |  | > 1000 | 300 to 1000 | 50 to 300 | CC(C)NC1(C)CN(c2ncc(-c3n[nH]c4ccc(O[C@H](C)c5c(Cl)cncc5Cl)c(F)c34)cc2C#N)C1 [Example 319, (R)-5-(5-(1-(3,5-dichloropyridin-4-yl)ethoxy)-4-fluoro-1H-indazol-3-yl)-2-(3-(isopropylamino)-3-methylazetidin-1-yl)nicotinonitrile]
> 1000 | > 1000 |  |  |  | > 1000 | 300 to 1000 | 1 to 50 | C[C@@H](Oc1ccc2[nH]nc(-c3cnc(N4CC(C)(NCCO)C4)c(C#N)c3)c2c1F)c1c(Cl)cncc1Cl [Example 324, (R)-5-(5-(1-(3,5-dichloropyridin-4-yl)ethoxy)-4-fluoro-1H-indazol-3-yl)-2-(3-((2-hydroxy-ethyl)amino)-3-methylazetidin-1-yl)nicotinonitrile]
